Drawing on patent US9643933B2, “Compounds useful as antibiotic tolerance inhibitors” (priority 2013, dated 2017), this text covers IC50 for 25 compounds.

One may read the IC50 as the concentration at which inhibition is half-maximal.

In one experiment the test system is PQS. The experiment in a line: PQS Inhibition Assay (24 Hour Incubation). The format is cell-based, P. aeruginosa PA14 wild-type strain. As to the method:
Test compounds are dissolved in DMSO at 10 mM and stored at −20° C. until needed. Seven test concentrations from 0.0032 micromolar to 31.6 micromolar are used for each compound. P. aeruginosa PA14 wild-type strain is inoculated into 5 mL LB broth in a 15-mL sterile glass culture tube and incubated overnight at 37° C. under shaking (˜240 rpm). The overnight culture is then diluted in LB Broth to give an OD600=0.04 (T0 culture). Colony Forming Units (CFU)/mL of the overnight culture and T0 culture are determined by a series of 1:10 serial dilutions in sterile saline. 4×20 μL of each dilution is seeded on LB agar plates and incubated at 35±2° C. for 20 hours. CFU/mL is determined from the dilution that gives 2 to 50 colonies/20 μL.
For concentration response curve (CRC) experiments, internal standard (2-((5-nitro-1H-indol-2-yl)thio)-N-(4-phenoxyphenyl)acetamide)) and test compounds are serially diluted in DMSO to give 200 times of each final concentration (0.5% DMSO final), and 1 μL/well is dispensed in duplicate into 2-mL wells of a 96 well deep well plate. 200 μL/well of T0 culture is added to each internal standard/test compound well used to determine PQS control level. Wells containing only LB broth (blank wells) are also included in the plate.
The plate is sealed and incubated at 37° C. for 24 hours under shaking (˜700 rpm) using a microtiter shaker. At the end of the incubation period, 150 μL/well of the deep well plate culture are transferred in a new non-sterile plate, and 150 μL/well of methanol containing tetra-deuterated PQS (D4-PQS) and 2% acetic acid are added to each well. The plate is sealed, shaken at high speed for 5 minutes and centrifuged at 4,000 g for 40 minutes at room temperature. 100 μL/well of the supernatant is then transferred to glass vials (vials crimp 0.2 mL) and kept at 4° C. until LC-MS/MS analysis.
PQSs quantification is carried out by analyzing samples in discrete batches together with spiked standards and blank samples.
Calibration curves are constructed from PQS standards, and respective deuterated PQS is used as an Internal Standards (IS) to calculate the concentration of analytes in the sample and improve the precision of the assay. The back-calculated concentrations of the calibration standards from the calibration curve shall be within ±20% of the nominal values, the range of the analytical method is determined, and the lower and upper limit of quantification specified.
Liquid chromatography separations are performed using an Agilent HP1100 system (Agilent Technologies) coupled with a CTC PAL Autosampler (CTC Analytics AG). Chromatographic retention is obtained using a monolithic column (Chromolith® RP-18, 50×4.6 mm). The solvent system consists of water containing 0.1% (v/v) formic acid (A) and acetonitrile containing 0.1% (v/v) formic acid (B). The gradient elution profile is chosen as follows: 0 min: 70% A (1500 μL/min), 0.3 min: 70% A (1500 μL/min), 1.3 min: 5% A (2500 μL/min), 1.6 min: 5% A (2500 μL/min).
The MS/MS analysis is performed with an API4000 series mass spectrometer (AB Sciex™) operating in Multiple Reaction Monitoring (MRM) mode and equipped with a TIS ion source. The specific ions monitored are PQS (m/z 260→m/z 175) and D4-PQS (m/z 264→m/z 179). The computer systems used in this study to acquire and quantify data may be an Analyst™ v1.5.
PQS in the presence of different concentrations of test compound are expressed as percentage of inhibition of the basal level in control samples. Curve fitting and IC50 estimations are carried out using a four parameter logistic model using GraphPad Prism v.5 program.

In the next experiment the test system is Pyocyanin. The experiment is described as follows: Pyocyanin Inhibition Assay. Format: cell-based, P. aeruginosa, strain PA14. The method in brief:
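P. aeruginosa PA14 at OD600=0.04 in LB grown 24 h at 37° C with shaking alongside compound (0.0032-31.6 micromolar, seven points, 0.5% DMSO final). Pyocyanin in supernatant quantified from A690 (ε 4,310 M^−1 cm^−1); % inhibition versus untreated culture, IC50 by four-parameter logistic fit.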

[1] abbreviates: Pseudomonas aeruginosa, PA14, 24 h, read-out: PQS (24 hr) IC50 (μM).
[2] abbreviates: Pseudomonas aeruginosa, PA14, 24 h, read-out: Pyocyanin Inhibition No. IC50 (μM).

Read-outs that look alike come from different tables or passages of the source.

As to “2-((5-chloro-1H-benzo[d]imidazol-2-yl)thio)-N-(4-(pyrimidin-5-yloxy)phenyl)acetamide [Compound 79]”, the IC50 with PQS (P. aeruginosa PA14 culture, 24 hours incubation, PQS by LC-MS/MS, read-out: PQS (24 hr) IC50) is < 1 µM; in the experiment on Pyocyanin (P. aeruginosa PA14 culture, 24 hours at 37° C., pyocyanin in supernatant by absorbance at 690 nm, read-out: Pyocyanin Inhibition No. IC50), < 0.1 µM.
As to `N#Cc1ccc(NC(=O)CSc2nc3cc(C(F)(F)F)ccc3[nH]2)cc1` [Compound 56], the IC50 with PQS (setting [1]) was < 1 µM; in the experiment with Pyocyanin (setting [2]) it was < 0.1 µM.
Regarding `N#Cc1ccc(NC(=O)CSc2nc3cc(F)ccc3[nH]2)cc1` [Compound 57], the IC50 is 1 to 5 µM with PQS (setting [1]) and 0.1 to 1 µM in the experiment with Pyocyanin (setting [2]).
On to `O=C(CNc1nc2cc(Cl)ccc2s1)Nc1ccc(Oc2cccnc2)cc1` [Compound 71, 2-((5-chlorobenzo[d]thiazol-2-yl)amino)-N-(4-(pyridin-3-yloxy)phenyl)acetamide], for which the figures for the IC50 in the experiment with PQS (setting [1]) and with Pyocyanin (setting [2]) were 5 to 10 µM and 0.1 to 1 µM, respectively.
The like results for `O=C(CNc1nc2cc(Cl)ccc2o1)Nc1ccc(Oc2cccnc2)cc1` [Compound 74, 2-((5-chlorobenzo[d]oxazol-2-yl)amino)-N-(4-(pyridin-3-yloxy)phenyl)acetamide] were, in that order, 1 to 5 µM and 0.1 to 1 µM.
The like results for `O=C(CSc1nc2cc(Cl)ccc2[nH]1)Nc1ccc(Oc2cccnc2)cc1` [Compound 77, 2-((5-chloro-1H-benzo[d]imidazol-2-yl)thio)-N-(4-(pyridin-3-yloxy)phenyl)acetamide] were, in that order, < 1 µM and < 0.1 µM.
In the same order, the values of `O=C(CSc1nc2cc(Cl)ccc2[nH]1)Nc1ccc(Oc2cccnc2Cl)cc1` [Compound 83, 2-((5-chloro-1H-benzo[d]imidazol-2-yl)thio)-N-(4-((2-chloropyridin-3-yl)oxy)phenyl)acetamide] are < 1 µM and < 0.1 µM.
For `O=C(CSc1nc2cc(Cl)ccc2[nH]1)Nc1ccc(Oc2ccc(Cl)nc2)cc1` [Compound 84, 2-((5-chloro-1H-benzo[d]imidazol-2-yl)thio)-N-(4-((6-chloropyridin-3-yl)oxy)phenyl)acetamide], the 50% inhibitory concentration (IC50) in the experiment with PQS (setting [1]) is 1 to 5 µM; in the experiment on Pyocyanin (setting [2]), < 0.1 µM.
In the case of `O=C(CCc1nc2cc(Cl)ccc2s1)Nc1ccc(Oc2cccnc2)cc1` [Compound 85, 3-(5-chlorobenzo[d]thiazol-2-yl)-N-(4-(pyridin-3-yloxy)phenyl)propanamide], the concentration for half-maximal inhibition (IC50) is > 10 µM in the experiment with PQS (setting [1]) and 0.1 to 1 µM in the experiment with Pyocyanin (setting [2]).
Regarding `O=C(CCc1nc2ccc(Cl)cc2s1)Nc1ccc(Oc2cccnc2)cc1` [Compound 86, 3-(6-Chlorobenzo[d]thiazol-2-yl)-N-(4-(pyridin-3-yloxy)phenyl)propanamide], the results for the 50% inhibitory concentration (IC50) in the experiment on PQS (setting [1]) and in the experiment with Pyocyanin (setting [2]) were > 10 µM and 0.1 to 1 µM, respectively.
Take `N#Cc1ccc(NC(=O)CSc2nc3ccc(C#N)cc3[nH]2)cc1` [Compound 93]: the IC50 is < 1 µM in the experiment on PQS (setting [1]) and 0.1 to 1 µM in the experiment with Pyocyanin (setting [2]).
In the same order, the values of `N#Cc1ccc2nc(SCC(=O)Nc3ccc(Cl)cc3)[nH]c2c1` [Compound 94] are 1 to 5 µM and 0.1 to 1 µM.
As to `N#Cc1ccc(NC(=O)CSc2nc3cc(Br)ccc3[nH]2)cc1` [Compound 96], the IC50 with PQS (setting [1]) was < 1 µM; in the experiment with Pyocyanin (setting [2]) it was < 0.1 µM.
In the case of `N#Cc1ccc(NC(=O)CSc2nc3cc(OC(F)F)ccc3[nH]2)cc1` [Compound 104], the results for the IC50 in the experiment with PQS (setting [1]) and with Pyocyanin (setting [2]) were 5 to 10 µM and 0.1 to 1 µM, respectively.
The like results for `O=C(CSc1nc2cc(C(F)(F)F)ccc2[nH]1)Nc1ccc(Cl)cc1` [Compound 105] were, in that order, 1 to 5 µM and 0.1 to 1 µM.
With `O=C(CSc1nc2cc(F)ccc2[nH]1)Nc1ccc(Cl)cc1` [Compound 110], the results for the IC50 in the experiment on PQS (setting [1]) and with Pyocyanin (setting [2]) were 5 to 10 µM and 0.1 to 1 µM, respectively.
In the same order, the values of `O=C(CSc1nc2ccc(-n3cccn3)cc2[nH]1)Nc1ccc(Cl)cc1` [Compound 116] are > 10 µM and 0.1 to 1 µM.
With `N#Cc1ccc(NC(=O)CSc2nc3cc(Cl)ccc3[nH]2)cc1` [Compound 125], the IC50 in the experiment on PQS (setting [1]) was < 1 µM; in the experiment on Pyocyanin (setting [2]), < 0.1 µM.
Consider `O=C(CSc1nc2cc(F)c(F)cc2[nH]1)Nc1ccc(Br)cc1` [Compound 126], for which the IC50 in the experiment with PQS (setting [1]) was > 10 µM; in the experiment with Pyocyanin (setting [2]), 0.1 to 1 µM.
The like results for `O=C(CSc1nc2ccc(Cl)cc2[nH]1)Nc1ccc(Cl)cc1` [Compound 137] were, in that order, 1 to 5 µM and 0.1 to 1 µM.
As to `COc1ccc(NC(=O)CSc2nc3ccc(Cl)cc3[nH]2)cc1` [Compound 140], the values for the 50% inhibitory concentration (IC50) in the experiment with PQS (setting [1]) and in the experiment on Pyocyanin (setting [2]) were 5 to 10 µM and 0.1 to 1 µM, respectively.
For `N#Cc1ccc(NC(=O)CSc2nc3cc(Cl)ccc3[nH]2)cc1Cl` [Compound 142], the IC50 was < 1 µM with PQS (setting [1]) and 0.1 to 1 µM in the experiment with Pyocyanin (setting [2]).
With `O=C(CSc1nc2ccc(Br)cc2[nH]1)Nc1ccc(Cl)cc1` [Compound 145], the IC50 was > 10 µM in the experiment on PQS (setting [1]) and 0.1 to 1 µM in the experiment with Pyocyanin (setting [2]).
As for `N#Cc1ccc(NC(=O)CSc2nc3cc(Br)ccc3o2)cc1` [Compound 147], the 50% inhibitory concentration (IC50) is 1 to 5 µM in the experiment on PQS (setting [1]) and 0.1 to 1 µM in the experiment with Pyocyanin (setting [2]).
On to `O=C(CCc1nc2ccc(Cl)cc2[nH]1)Nc1ccc(Oc2cccnc2)cc1` [Compound 152, 3-(5-chloro-1H-benzo[d]imidazol-2-yl)-N-(4-(pyridin-3-yloxy)phenyl)propanamide], for which the results for the half-maximal inhibitory concentration (IC50) with PQS (setting [1]) and in the experiment on Pyocyanin (setting [2]) were 1 to 5 µM and 0.1 to 1 µM, respectively.
